Series [1] relates to C. parvum Iowa isolate (Bunch Grass Farm). The series is described as follows: C. parvum Iowa isolate (Bunch Grass Farm) growth in HCT-8 cells, high-content microscopy. The series is classed as cell-based. The conditions noted are these: Cryptosporidium parvum. The method, then:
A high-content microscopy assay was used to measure activity of compounds against C. parvum grown in the human adenocarcinoma cell line HCT-8 (ATCC) as disclosed in Bessoff, K., et al., Antimicrobial agents and chemotherapy 57, 1804-1814, doi:10.1128/AAC.02460-12 (2013), hereby incorporated by reference in its entirety. HCT-8 cells were cultured in 384-well clear-bottomed plates in 50 μL per well of RPMI 1640 medium ([…]), 120 U·mL^−1 penicillin, and 120 μg·mL^−1 streptomycin (ATCC) at 37° C. under 5% CO2. For compound screening and follow-up SAR studies, confluent cell monolayers were infected with C. parvum Iowa isolate oocysts [Bunch Grass Farm (Deary, Id.); ˜5,500 oocysts per well] after inducing excystation by treatment for 10 min at 37° C. with 10 mM HCl and then 10 min at 16° C. in 2 mM sodium taurocholate. Compounds were added at the indicated concentrations 3 h after monolayer infection. After incubation (37° C., 5% CO2) for 48 h, the cells were washed three times with PBS containing 111 mM D-Galactose and fixed by adding an equal volume of 8% formaldehyde in PBS. Cell monolayers were then prepared for microscopy by permeabilizing with 0.1% Triton X-100, washing three times with PBS with 0.1% Tween 20, blocking with 4% bovine serum albumin (BSA) in PBS for 2 h at 37° C. or 4° C. overnight, and staining parasitophorous vacuoles with 1.33 μg·mL^−1 of fluorescein-labeled Vicia villosa lectin (Vector Laboratories) diluted in 1% BSA in PBS with 0.1% Tween 20 for 1 h at 37° C. DNA was then stained by adding Hoechst 33258 (AnaSpec) at a final concentration of 0.09 mM diluted in water, followed by washing five times with PBS containing 0.1% Tween 20. Images were acquired using a Nikon Eclipse TE2000 epifluorescence microscope with an automated stage that was programmed using NIS-Elements Advanced Research software (Nikon) to focus on the center of each well and take a 3×3 composite image using an EXi Blue fluorescence microscopy camera (QImaging) with a 20× objective (numerical aperture 0.45). Nucleus and parasite images were exported separately as tif files and analyzed using NIH ImageJ and previously reported macros, and data analysis and graphing were done using GraphPad Prism software, version 6.01. […]

Series [2] deals with C. parvum (Iowa) Sterling. Nature of the series: C. parvum (Iowa) Sterling growth in HCT-8 cells. The class given is cell-based. The conditions noted are these: Cryptosporidium parvum. The method, then: (§1) Studies using farm C. parvum isolates and the C. hominis TU502 isolate were performed by Calibr at Scripps Research (La Jolla, Calif.) in 1,536-well plates using a slightly modified immunofluorescence assay as described in Love, M. S. et al. PLoS neglected tropical diseases 11, e0005373, doi:10.1371/journal.pntd.0005373 (2017), hereby incorporated by reference in its entirety. HCT-8 cell culture medium was replaced with RPMI 1640 medium supplemented with 2% heat-inactivated horse serum, 100 U·mL^−1 penicillin, and […] 24 h prior to infection with the indicated isolate. The C. parvum Iowa isolate was included as a reference in all experiments. Imaging was performed using a Cellnsight CX5 High Content screening platform (Thermo Scientific) with a 10× objective and acquisition of one microscopic field per well. Images were processed using HCS Studio Scan software, and the selected-object count (HCT-8 cells) and spot count (parasitophorous vacuoles) were analyzed in Genedata Screener (version 13.0; Standard). Dose-response curves and EC50 values were calculated using the Smart Fit function of Genedata Analyzer.

Series [3] deals with C. parvum (Field Isolate) WSU. The series is described as follows: C. parvum field isolate (WSU) growth in HCT-8 cells. The series is classed as cell-based. The conditions noted are these: Cryptosporidium parvum. The method, then: as §1
The next series relates to C. hominis (TU 502). The series is described as follows: C. hominis TU502 growth in HCT-8 cells. The class given is cell-based. To be noted: Cryptosporidium hominis. The protocol:
as §1

Another series is described as follows: HepG2 cytotoxicity. The class given is cell-based. To be noted: human, HepG2 cells.
A further series relates to HepG2 cells. Nature of the series: HepG2 cytotoxicity. The class given is cell-based. The conditions noted are these: C. parvum Iowa isolate (1% FBS) EC50 compared to HepG2 CC50.
The nature of a further series: HEK293T cytotoxicity. The series is classed as cell-based. To be noted: human, HEK293T cells.
The next series has as its system C. parvum. Nature of the series: NOD SCID gamma mouse model of established cryptosporidiosis, fecal oocyst shedding by qPCR. The series is classed as in vivo, NOD SCID gamma mice. To be noted: oral, 50 mg/kg every 24 h for 4 days. From the text:
FIG. 4A is a schematic of NOD SCID gamma (NSG) mouse model of established intestinal cryptosporidiosis. Intestinal C. parvum infection was established by oral gavage of ˜10^5 oocysts either 7 days (FIGS. 4B and C) or 14 days (FIG. 4D) prior to oral treatment with bicyclic azetidines, vehicle, or paromomycin (positive control). All data are the mean and SEM (n=4 mice per experimental group) of parasite shedding per mg of feces measured by qPCR with results for individual mice shown as superimposed data points. Data points for which no parasite DNA was detected are shown at the qPCR assay limit of detection (0.1 oocysts per mg feces).
NOD scid gamma mice (NOD.Cg-Prkdcscid Il2rgtmlWjl/Szj; Jackson Laboratory, Bar Harbor, Me.) (NSG) were used to model established Cryptosporidium infection. All NSG mouse studies were performed in compliance with animal care guidelines and with approval by the University of Vermont Institutional Animal Care and Use Committee. Mice were acquired at three to four weeks of age, and acclimatized for one week prior to infection by oral gavage of ˜10^5 C. parvum Iowa isolate (Bunch Grass Farms) oocysts. They were then treated at the specified times and dosages with each compound dissolved in 0.5% hydroxypropylmethyl cellulose, 0.5% Tween 80 (v/v) plus 5% DMSO.
This cryptosporidiosis infection model used 3-4 week old, freshly weaned, NOD SCID gamma mice orally infected with C. parvum oocysts (˜1×10^5). The infection was monitored by qPCR of feces with primers specific for C. parvum and data are shown as number of oocysts milligram^−1 of feces. Six days following infection and upon confirmation of parasite shedding by qPCR, the three compounds, negative and positive control were orally administered at 50 mg·kg^−1 (body weight) every 24 h for 4 days. (FIGS. 4A-D). […] We then performed a dose-ranging study with Compound 11 using the same immunocompromised mouse model and dosing regimens of 5, 20 and 40 mg·kg^−1 every 24 h for 4 days or 10 mg·kg^−1 every 24 h for 7 days. Mice were monitored for an additional 14 days for relapse of infection.

Like-named read-outs stand apart in the source and are kept apart here.

Take `COc1ccc(NC(=O)N2CCCCN3[C@H](CN(C)C(C)=O)[C@H](c4ccc(C#Cc5ccccc5)cc4)[C@@H]3C2)cc1` [Compound 16, (8R,9S,10S)-N-(4-methoxyphenyl)-10-((N-methylacetamido)methyl)-9-(4-(phenylethynyl)phenyl)-1,6-diazabicyclo[6.2.0]decane-6-carboxamide]: the EC50 amounted to 2 nM in series [1] (read-out: C. parvum (Iowa) (1% FBS) BGF EC50); 8 nM in series [1] (read-out: C. parvum (Iowa) (10% FBS) BGF EC50); 0.6 nM in series [2]; 6 nM in series [3]; 3 nM in the series on C. hominis (TU 502). Besides, the CC50 was determined as 25000 nM in “HepG2 cytotoxicity” and 27000 nM in “HEK293T cytotoxicity”. The selectivity index in the series on HepG2 cells is > 10,000. Further, the “reduction in oocyst shedding (oocysts per mg feces)” value with C. parvum was “greatest reduction in oocysts”.

The values above are taken from US20230009323A1, “COMPOUNDS AND METHODS FOR THE TREATMENT OF CRYPTOSPORIDIOSIS” (The Broad Institute, Inc., priority 2019, published 2023).
